Measured values reported in US9133187B2, “Serine/threonine kinase inhibitors” (ARRAY BIOPHARMA INC., priority 2011, dated 2015).
Structures can show the parent of a compound that is named as a salt.

Columns and labels:
[1] = target: human ERK-2 (Mitogen Activated Kinase 1) (Homo sapiens (Human), UniProt P28482); test: ERK-2 Enzymatic Assay; type: biochemical; conditions: 5 nM ERK-2, 25 μM ATP, Omnia peptide S/T17; read-out: ERK Inhibition IC50
Experimental: Compounds were tested in an enzymatic assay using human ERK-2 (Mitogen Activated Kinase 1), recombinantly expressed as an n-terminal 6-His fusion protein in E. coli and corresponding to aa 8-360. The substrate used was the fluorescent Omnia peptide S/T17 (Invitrogen of Carlsbad, Calif.; Cat. KNZ1171C). Test compounds were diluted in DMSO in 3-fold serial dilutions at 100× final concentrations. […] The assay was run at ambient temperature in a white 384-well polypropylene plate (Nunc, Inc of Naperville, Ill.; Cat. 267462) collecting data every 50 seconds for approximately 30 minutes on an Envision plate reader (PerkinElmer, Inc. of Waltham, Mass.); Excitation 340 nm/Emission 495 nm. The data collected from each well was fit to a straight line and the resulting rates were used to calculate percent of control. Percent of control was plotted against compound concentration and IC50 values were determined using a four-parameter fit.

[2] = tested on: PMA-stimulated P90RSK(Ser380) phosphorylation in HepG2 cells; test: Cellular P90RSK(Ser380) Phosphorylation Assay; type: cell-based; conditions: Homo sapiens, 1.5 h compound incubation, PMA stimulation, pP90RSK(Ser380) normalized to GAPDH, read-out: Cell Assay IC50
Experimental: Inhibition of PMA-stimulated P90RSK(Ser380) phosphorylation was determined by the following in vitro cellular mechanistic assay, which comprises incubating cells with a compound for 1.5 hours and quantifying fluorescent pP90RSK(Ser380) signal on fixed cells and normalizing to GAPDH signal.
Materials and Methods: HepG2 cells were obtained from ATCC and grown in DMEM supplemented with 10% fetal bovine serum. Cells were plated in 96-well plates at 35,000 cells/well and allowed to attach overnight at 37° C./5% CO2. Diluted compounds were then added at a final concentration of 0.5% DMSO. After 1.5 hour compound incubation, cells were stimulated with the addition of PMA (phorbol 12-myristate 13-acetate) at a final concentration of 100 ng/mL; the PMA stimulation was a 30-minute incubation at 37° C./5% CO2. After the 30-minute PMA stimulation, cells were washed with PBS and fixed in 3.7% formaldehyde in PBS at room temperature for 15-20 minutes. This was followed by another wash in PBS and then permeabilization in 100% MeOH at room temperature for 10-15 minutes. Following the permeabilization incubation, cells were washed in PBS/0.05% Tween-20, followed by a block in Odyssey blocking buffer (LI-COR Biosciences) for at least 1 hour. Antibodies to phosphorylated P90RSK(Ser380) (Cell Signaling #9335, rabbit monoclonal) and GAPDH (Fitzgerald 10R-G109a, mouse monoclonal) were added to the cells and incubated overnight at 4° C. pP90RSK(Ser380) antibody was used at a 1:250 dilution; GAPDH was used at a 1:10,000 dilution. After washing with PBS/0.05% Tween-20, the cells were incubated with fluorescently-labeled secondary antibodies (Anti-rabbit-Alexa Flour680, Invitrogen Cat#A21109; Anti-mouse-IRDye800CW, Rockland Inc. Cat#610-131-121) for 1 hour. Both secondary antibodies were used at a 1:1000 dilution. Cells were then washed and analyzed for fluorescence at both wavelengths using the Odyssey Infrared Imaging System (LI-COR Biosciences). Phosphorylated P90RSK(Ser380) signal was normalized to GAPDH signal. Representative date is in TABLE III (infra).

Sequence of human ERK-2 (Mitogen Activated Kinase 1) (P28482 8-360): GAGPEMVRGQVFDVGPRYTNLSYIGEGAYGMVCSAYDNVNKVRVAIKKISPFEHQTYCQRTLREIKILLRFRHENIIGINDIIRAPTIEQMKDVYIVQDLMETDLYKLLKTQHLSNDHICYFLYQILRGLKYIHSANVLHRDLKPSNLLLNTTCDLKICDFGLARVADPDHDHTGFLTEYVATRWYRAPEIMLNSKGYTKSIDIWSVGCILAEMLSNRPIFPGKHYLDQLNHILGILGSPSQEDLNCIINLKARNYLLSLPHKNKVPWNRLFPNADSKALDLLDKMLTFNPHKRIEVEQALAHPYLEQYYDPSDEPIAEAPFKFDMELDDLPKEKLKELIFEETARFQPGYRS

| Compound | IC50 [1] [nM] | IC50 [2] [nM] |
| --- | --- | --- |
| CNC[C@@H](NC(=O)N1CCc2cnc(Nc3ccc(F)cc3)nc2C1)c1ccc(F)c(Cl)c1 [II-35, 2-(4-Fluoro-phenylamino)-5,8-dihydro-6H-pyrido[3,4-d]pyrimidine-7-carboxylic acid [(S)-1-(3-chloro-4-fluoro-phenyl)-2-methylamino-ethyl]-amide] | 21.5 | 160 |
| C[C@@H](NC(=O)N1CCc2cnc(N[C@H](CO)Cc3ccccc3)nc2C1)c1ccc(Cl)c(Cl)c1 [II-111, 2-((S)-1-Hydroxymethyl-2-phenyl-ethylamino)-5,8-dihydro-6H-pyrido[3,4-d]pyrimidine-7-carboxylic acid [(R)-1-(3,4-dichloro-phenyl)-ethyl]-amide] | 4.7 | 693 |
| CNC[C@@H](NC(=O)N1CCc2cnc(NC(C)C)nc2C1)c1ccc(C(F)(F)F)c(F)c1 [Compound I-66, (S)—N-(1-(3-fluoro-4-(trifluoromethyl)phenyl)-2-(methylamino)ethyl)-2-(isopropylamino)-5,6-dihydropyrido[3,4-d]pyrimidine-7(8H)-carboxamide hydrochloride] | 4.1 | 132 |
| CC(C)Nc1ncc2c(n1)CN(C(=O)N[C@@H](c1ccc(Cl)c(Cl)c1)[C@H](O)CO)CC2 [Compound I-62, N-((1S,2S)-1-(3,4-dichlorophenyl)-2,3-dihydroxypropyl)-2-(isopropylamino)-5,6-dihydropyrido[3,4-d]pyrimidine-7(8H)-carboxamide] | 2.4 | 109 |
| COC[C@@H](NC(=O)N1CCc2cnc(NCCO)nc2C1)c1ccc(Cl)c(Cl)c1 [Compound I-73] | 9.8 | 241 |
| CC(C)Nc1ncc2c(n1)CN(C(=O)NC[C@H](c1ccc(C(F)(F)F)c(F)c1)N1CCCC1)CC2 [II-102, 2-Isopropylamino-5,8-dihydro-6H-pyrido[3,4-d]pyrimidine-7-carboxylic acid [(S)-2-(3-fluoro-4-trifluoromethyl-phenyl)-2-pyrrolidin-1-yl-ethyl]-amide] | 409 | – |
| CC1CC(Nc2ncc3c(n2)CN(C(=O)N[C@H](CO)c2ccc(Cl)c(F)c2)CC3)CCO1 (stereo partly drawn) [II-366] | – | 91 |
| O=C(NC(c1ccc(Cl)c(F)c1)c1nnco1)N1CCc2cnc(NC3CCOCC3)nc2C1 (stereo in doubt) [II-359, 2-(Tetrahydro-pyran-4-ylamino)-5,8-dihydro-6H-pyrido[3,4-d]pyrimidine-7-carboxylic acid [(R)-(4-chloro-3-fluoro-phenyl)-[1,3,4]oxadiazol-2-yl-methyl]-amide] | 2.4 | 30 |
| C[C@@H](NC(=O)N1CCc2cnc(NC3CC(F)(F)C3)nc2C1)c1ccc(Cl)c(Cl)c1 [II-355, 2-(3,3-Difluoro-cyclobutylamino)-5,8-dihydro-6H-pyrido[3,4-d]pyrimidine-7-carboxylic acid [(R)-1-(3,4-dichloro-phenyl)-ethyl]-amide] | 7.5 | 970 |
| O=C(NC1(c2ccc(Cl)cc2)CCNC1)N1CCc2cnc(Nc3ccc(F)cc3)nc2C1 (stereo not drawn) [II-64, 2-(4-Fluoro-phenylamino)-5,8-dihydro-6H-pyrido[3,4-d]pyrimidine-7-carboxylic acid [3-(4-chloro-phenyl)-pyrrolidin-3-yl]-amide] | 38.3 | 3100 |
| CCOc1cc(Nc2ncc3c(n2)CN(C(=O)N[C@H](C)c2ccc(Cl)c(Cl)c2)CC3)ccn1 [Compound I-35, (R)—N-(1-(3,4-dichlorophenyl)ethyl)-2-(2-ethoxypyridin-4-ylamino)-5,6-dihydropyrido[3,4-d]pyrimidine-7(8H)-carboxamide] | 5.6 | 91.3 |
| C[C@@H](CO)Nc1ncc2c(n1)CN(C(=O)N[C@@H](c1ccc(Cl)c(Cl)c1)C(F)(F)F)CC2 [Compound I-23, N—((S)-1-(3,4-dichlorophenyl)-2,2,2-trifluoroethyl)-2-((S)-1-hydroxypropan-2-ylamino)-5,6-dihydropyrido[3,4-d]pyrimidine-7(8H)-carboxamide] | 3.2 | 493 |
| C[C@@H](CO)Nc1ncc2c(n1)CN(C(=O)NCc1cccc3cc[nH]c13)CC2 [II-200, 2-((S)-2-Hydroxy-1-methyl-ethylamino)-5,8-dihydro-6H-pyrido[3,4-d]pyrimidine-7-carboxylic acid (1H-indol-7-ylmethyl)-amide] | 411 | 1000 |
| CC(C)Nc1ncc2c(n1)CN(C(=O)N[C@H](CN)c1ccc(F)c(Cl)c1)CC2 [II-7, 2-Isopropylamino-5,8-dihydro-6H-pyrido[3,4-d]pyrimidine-7-carboxylic acid [(S)-2-amino-1-(3-chloro-4-fluoro-phenyl)-ethyl]-amide] | 1.9 | 50000 |
| C[C@@H](NC(=O)N1CCc2cnc(NC3CC(=O)N(C)C3)nc2C1)c1ccc(Cl)c(F)c1 (stereo partly drawn) [II-267, 2-(1-Methyl-5-oxo-pyrrolidin-3-ylamino)-5,8-dihydro-6H-pyrido[3,4-d]pyrimidine-7-carboxylic acid [1-(4-chloro-3-fluoro-phenyl)-ethyl]-amide] | 20.1 | 28000 |
| O=C(N1CCc2cnc(NC3CCOCC3)nc2C1)N1CCNCC1c1ccccc1 (stereo not drawn) [Compound I-141, (2-Phenylpiperazin-1-yl)(2-(tetrahydro-2H-pyran-4-ylamino)-5,6-dihydropyrido[3,4-d]pyrimidin-7(8H)-yl)methanone] | 108 | – |
| N#CCN1C[C@@H](NC(=O)N2CCc3cnc(NC4CCOCC4)nc3C2)[C@H](c2ccc(F)c(F)c2)C1 [II-341, 2-(Tetrahydro-pyran-4-ylamino)-5,8-dihydro-6H-pyrido[3,4-d]pyrimidine-7-carboxylic acid [(3S,4R)-1-cyanomethyl-4-(3,4-difluoro-phenyl)-pyrrolidin-3-yl]-amide] | 4 | 371 |
| O=C(N[C@H](CO)c1ccc(F)c(Cl)c1)N1CCc2cnc(Nc3ccc(Cl)c(F)c3)nc2C1 [II-61, 2-(4-Chloro-3-fluoro-phenylamino)-5,8-dihydro-6H-pyrido[3,4-d]pyrimidine-7-carboxylic acid [(S)-1-(3-chloro-4-fluoro-phenyl)-2-hydroxy-ethyl]-amide] | 210 | 21300 |
| C[C@@H](NC(=O)N1CCc2cnc(NC(CO)CO)nc2C1)c1ccc(Cl)c(Cl)c1 [Compound I-75, (R)—N-(1-(3,4-dichlorophenyl)ethyl)-2-(1,3-dihydroxypropan-2-ylamino)-5,6-dihydropyrido[3,4-d]pyrimidine-7(8H)-carboxamide] | 5.6 | 314 |
| CC(C)OC[C@@H](NC(=O)N1CCc2cnc(N[C@H]3CC[C@H](O)C3)nc2C1)c1ccc(F)c(Cl)c1 [II-95, 2-((1S,3S)-3-Hydroxy-cyclopentylamino)-5,8-dihydro-6H-pyrido[3,4-d]pyrimidine-7-carboxylic acid [(S)-1-(3-chloro-4-fluoro-phenyl)-2-isopropoxy-ethyl]-amide] | – | 551 |
| CC(C)Nc1ncc2c(n1)CN(C(=O)N[C@@H](c1ccc(C(F)(F)F)c(F)c1)c1cccc(=O)[nH]1)CC2 [II-99, 2-Isopropylamino-5,8-dihydro-6H-pyrido[3,4-d]pyrimidine-7-carboxylic acid [(S)-(3-fluoro-4-trifluoromethyl-phenyl)-(6-oxo-1,6-dihydro-pyridin-2-yl)-methyl]-amide] | – | 5600 |
| O=C(N[C@H](CO)c1ccc(F)c(Cl)c1)N1CCc2cnc(N[C@H](CO)Cc3ccccc3)nc2C1 [II-17, 2-((S)-1-Hydroxymethyl-2-phenyl-ethylamino)-5,8-dihydro-6H-pyrido[3,4-d]pyrimidine-7-carboxylic acid [(S)-1-(3-chloro-4-fluoro-phenyl)-2-hydroxy-ethyl]-amide] | – | 1100 |
| O=C(N1CCc2cnc(NC3CCOCC3)nc2C1)N1CCCC1c1nccs1 (stereo not drawn) [Compound I-139, (2-(tetrahydro-2H-pyran-4-ylamino)-5,6-dihydropyrido[3,4-d]pyrimidin-7(8H)-yl)(2-(thiazol-2-yl)pyrrolidin-1-yl)methanone] | 264 | – |
